# From patent US20240074996A1, “C5 KETONE COMPOSITIONS AND RELATED METHODS FOR TREATING METABOLIC DYSFUNCTION” (Keto Innovations, LLC, priority 2018, published 2024)
# Legend:
# [1] = Blood glucose after oral BHP or BKP (Example 1); assay type: in vivo, human; details: 10 g oral in water, 12 h fast
# Method: (§1) Two (2) healthy, male subjects reported to the laboratory following a 12 hour overnight fast. Subjects were instructed to randomly consume either 10 grams of BHP or 10 grams BKP dissolved in 12 ounces of water. Subjects were then monitored for 150 minutes following drinking the mixture. Blood glucose, ketones, and visual analog scales (VAS) of well-being, energy, and focus were taken at 0, 30, 60, 90, 120, and 150 minutes. VAS scales consisted of a continuum of numbers from 1-10 with 1 being extremely low and 10 being extremely high.
# (§2) Blood ketones were measured via finger prick using an Abbott Precision device which determines mMol of BHB. Blood glucose was measured using Abbott Precision glucose strips and was measured in mg/dL.
# [2] = Blood ketones (BHB, Abbott Precision) after oral BHP or BKP (Example 1); assay type: in vivo, human; details: 10 g oral in water, 12 h fast
# Method: as §1, §2
# [3] = Visual analog scale of well-being after BHP or BKP (Example 1); assay type: in vivo, human; details: scale 1-10, 10 g oral, 12 h fast
# Method: as §1
# [4] = Visual analog scale of energy after BHP or BKP (Example 1); assay type: in vivo, human; details: scale 1-10, 10 g oral, 12 h fast
# Method: as §1
# [5] = Visual analog scale of focus after BHP or BKP (Example 1); assay type: in vivo, human; details: scale 1-10, 10 g oral, 12 h fast
# Method: as §1
# [6] = Blood ketones after oral BHP (Example 3); assay type: in vivo, human; details: 10 g BHP oral in water
# Method: (§3) Subjects consumed 10 grams of BHP dissolved in 12 ounces of water. Subjects were then monitored for 80 minutes following drinking the mixture. Blood glucose, ketones, and lactate were taken at 0, 20, 40, 60, and 80 minutes.
# (§4) Blood ketones were measured via finger prick using an Abbott Precision device which determines mMol of BHB. Blood glucose was measured using Abbott Precision glucose strips and was measured in mg/dL. Blood lactate was measured using an Abbott Precision device which determines mMol of lactate.
# [7] = Blood glucose after oral BHP (Example 3); assay type: in vivo, human; details: 10 g BHP oral in water
# Method: as §3, §4
# [8] = Blood lactate after oral BHP, safety (Example 3); assay type: in vivo, human; details: 10 g BHP oral in water
# Method: The purpose of this experiment was to determine safety associated with ingestion of exogenous C5 ketones with regard to hyperlactemia, lactic acidosis, or ketoacidosis that sometimes happens with medications, as all 3 are associated with morbidity and mortality.
# as §3, §4
# [9] = short-term experiments; large supply of propionyl-CoA; cited from earlier work
smiles,measurement,setting,value
"CCC(O)CC(=O)O (stereo not drawn) [BHP, β-hydroxypentanoate]",Blood glucose levels,"[1]; Combined, 0 min.",84 mg/dL
same,Blood glucose levels,"[1]; Combined, 30 min.",80.5 mg/dL
same,Blood glucose levels,"[1]; Combined, 60 min.",70.5 mg/dL
same,Blood glucose levels,"[1]; Combined, 90 min.",79 mg/dL
same,Blood glucose levels,"[1]; Combined, 120 min.",83.5 mg/dL
same,Blood glucose levels,"[1]; Combined, 150 min.",90.5 mg/dL
same,Blood glucose levels,"[1]; Subject 1, 0 min.",84 mg/dL
same,Blood glucose levels,"[1]; Subject 1, 30 min.",85 mg/dL
same,Blood glucose levels,"[1]; Subject 1, 60 min.",75 mg/dL
same,Blood glucose levels,"[1]; Subject 1, 90 min.",79 mg/dL
same,Blood glucose levels,"[1]; Subject 1, 120 min.",86 mg/dL
same,Blood glucose levels,"[1]; Subject 1, 150 min.",91 mg/dL
same,Blood glucose levels,"[1]; Subject 2, 0 min.",84 mg/dL
same,Blood glucose levels,"[1]; Subject 2, 30 min.",76 mg/dL
same,Blood glucose levels,"[1]; Subject 2, 60 min.",66 mg/dL
same,Blood glucose levels,"[1]; Subject 2, 90 min.",79 mg/dL
same,Blood glucose levels,"[1]; Subject 2, 120 min.",81 mg/dL
same,Blood glucose levels,"[1]; Subject 2, 150 min.",90 mg/dL
same,Blood ketone levels,"[2]; Combined, 0 min.",0.1 mmol
same,Blood ketone levels,"[2]; Combined, 30 min.",1.6 mmol
same,Blood ketone levels,"[2]; Combined, 60 min.",0.55 mmol
same,Blood ketone levels,"[2]; Combined, 90 min.",0.2 mmol
same,Blood ketone levels,"[2]; Combined, 120 min.",0.3 mmol
same,Blood ketone levels,"[2]; Combined, 150 min.",0.2 mmol
same,Blood ketone levels,"[2]; Subject 1, 0 min.",0.1 mmol
same,Blood ketone levels,"[2]; Subject 1, 30 min.",1.8 mmol
same,Blood ketone levels,"[2]; Subject 1, 60 min.",0.7 mmol
same,Blood ketone levels,"[2]; Subject 1, 90 min.",0.2 mmol
same,Blood ketone levels,"[2]; Subject 1, 120 min.",0.2 mmol
same,Blood ketone levels,"[2]; Subject 1, 150 min.",0.2 mmol
same,Blood ketone levels,"[2]; Subject 2, 0 min.",0.1 mmol
same,Blood ketone levels,"[2]; Subject 2, 30 min.",1.4 mmol
same,Blood ketone levels,"[2]; Subject 2, 60 min.",0.4 mmol
same,Blood ketone levels,"[2]; Subject 2, 90 min.",0.2 mmol
same,Blood ketone levels,"[2]; Subject 2, 120 min.",0.4 mmol
same,Blood ketone levels,"[2]; Subject 2, 150 min.",0.2 mmol
same,VAS of Well-Being,"[3]; Combined, 0 min.",6
same,VAS of Well-Being,"[3]; Combined, 30 min.",5
same,VAS of Well-Being,"[3]; Combined, 60 min.",4.5
same,VAS of Well-Being,"[3]; Combined, 90 min.",6
same,VAS of Well-Being,"[3]; Combined, 120 min.",4.5
same,VAS of Well-Being,"[3]; Combined, 150 min.",5
same,VAS of Well-Being,"[3]; Subject 1, 0 min.",7
same,VAS of Well-Being,"[3]; Subject 1, 30 min.",5
same,VAS of Well-Being,"[3]; Subject 1, 60 min.",5
same,VAS of Well-Being,"[3]; Subject 1, 90 min.",7
same,VAS of Well-Being,"[3]; Subject 1, 120 min.",5
same,VAS of Well-Being,"[3]; Subject 1, 150 min.",6
same,VAS of Well-Being,"[3]; Subject 2, 0 min.",5
same,VAS of Well-Being,"[3]; Subject 2, 30 min.",5
same,VAS of Well-Being,"[3]; Subject 2, 60 min.",4
same,VAS of Well-Being,"[3]; Subject 2, 90 min.",5
same,VAS of Well-Being,"[3]; Subject 2, 120 min.",4
same,VAS of Well-Being,"[3]; Subject 2, 150 min.",4
same,VAS of Energy,"[4]; Combined, 0 min.",4
same,VAS of Energy,"[4]; Combined, 30 min.",3.5
same,VAS of Energy,"[4]; Combined, 60 min.",3.5
same,VAS of Energy,"[4]; Combined, 90 min.",5
same,VAS of Energy,"[4]; Combined, 120 min.",4.5
same,VAS of Energy,"[4]; Combined, 150 min.",6
same,VAS of Energy,"[4]; Subject 1, 0 min.",5
same,VAS of Energy,"[4]; Subject 1, 30 min.",4
same,VAS of Energy,"[4]; Subject 1, 60 min.",5
same,VAS of Energy,"[4]; Subject 1, 90 min.",7
same,VAS of Energy,"[4]; Subject 1, 120 min.",5
same,VAS of Energy,"[4]; Subject 1, 150 min.",7
same,VAS of Energy,"[4]; Subject 2, 0 min.",3
same,VAS of Energy,"[4]; Subject 2, 30 min.",3
same,VAS of Energy,"[4]; Subject 2, 60 min.",2
same,VAS of Energy,"[4]; Subject 2, 90 min.",3
same,VAS of Energy,"[4]; Subject 2, 120 min.",4
same,VAS of Energy,"[4]; Subject 2, 150 min.",5
same,VAS of Focus,"[5]; Combined, 0 min.",3.5
same,VAS of Focus,"[5]; Combined, 30 min.",4
same,VAS of Focus,"[5]; Combined, 60 min.",3
same,VAS of Focus,"[5]; Combined, 90 min.",3
same,VAS of Focus,"[5]; Combined, 120 min.",5
same,VAS of Focus,"[5]; Combined, 150 min.",5
same,VAS of Focus,"[5]; Subject 1, 0 min.",5
same,VAS of Focus,"[5]; Subject 1, 30 min.",5
same,VAS of Focus,"[5]; Subject 1, 60 min.",5
same,VAS of Focus,"[5]; Subject 1, 90 min.",5
same,VAS of Focus,"[5]; Subject 1, 120 min.",5
same,VAS of Focus,"[5]; Subject 1, 150 min.",5
same,VAS of Focus,"[5]; Subject 2, 0 min.",2
same,VAS of Focus,"[5]; Subject 2, 30 min.",3
same,VAS of Focus,"[5]; Subject 2, 60 min.",3
same,VAS of Focus,"[5]; Subject 2, 90 min.",3
same,VAS of Focus,"[5]; Subject 2, 120 min.",5
same,VAS of Focus,"[5]; Subject 2, 150 min.",5
same,Blood Ketones,[6]; 0 min.,0.3 mmol/L
same,Blood Ketones,[6]; 20 min.,0.6 mmol/L
same,Blood Ketones,[6]; 40 min.,1.8 mmol/L
same,Blood Ketones,[6]; 60 min.,1.1 mmol/L
same,Blood Ketones,[6]; 80 min.,0.5 mmol/L
same,Blood Glucose,[7]; 0 min.,99.5 mg/dL
same,Blood Glucose,[7]; 20 min.,103 mg/dL
same,Blood Glucose,[7]; 40 min.,102.5 mg/dL
same,Blood Glucose,[7]; 60 min.,94.5 mg/dL
same,Blood Glucose,[7]; 80 min.,92.5 mg/dL
same,Blood Lactate,[8]; 0 min.,1.3 mmol/L
same,Blood Lactate,[8]; 20 min.,1.4 mmol/L
same,Blood Lactate,[8]; 40 min.,0.7 mmol/L
same,Blood Lactate,[8]; 60 min.,0.9 mmol/L
same,Blood Lactate,[8]; 80 min.,1.1 mmol/L
same,Metabolism and tolerance in animals,[9],well metabolized in animals without apparent intolerance
